According to PubChem BioAssay AID1963841 (Molecular Pharmacology Branch, DTP, NCI, 2024):

Tested on: 439559-082-T-J2-PDC spheroid viability
Assay: Anticancer human tumor 439559-082-T-J2-PDC patient-derived colon adenocarcinoma cell line growth inhibition [POLQ]
Conditions: spheroids with HUVEC and MSC; for IC50: curve of first compound; for viability, T/C: stronger effect = lower value
Summary of the method: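 Complex spheroid viability model combining PDC tumour cells with endothelial (HUVEC) and MSC stromal cells. Novobiocin, ART-558 or RP6685 were tested singly and in combination with standard and investigational anticancer drugs. Each was titrated in half-log steps from near clinical Cmax, or from 10 microM where Cmax was unknown.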

[1] = second compound 0.0316 µM, first compound 0.0316 µM
[2] = second compound 0.0316 µM, first compound 0.1 µM
[3] = second compound 0.0316 µM, first compound 0.316 µM
[4] = second compound 0.0316 µM, first compound 1 µM
[5] = second compound 0.0316 µM, first compound 3.16 µM
[6] = second compound 0.0316 µM, first compound 10 µM
[7] = second compound 0.1 µM, first compound 0.0316 µM
[8] = second compound 0.1 µM, first compound 0.1 µM
[9] = second compound 0.1 µM, first compound 0.316 µM
[10] = second compound 0.1 µM, first compound 1 µM
[11] = second compound 0.1 µM, first compound 3.16 µM
[12] = second compound 0.1 µM, first compound 10 µM
[13] = second compound 0.316 µM, first compound 0.0316 µM
[14] = second compound 0.316 µM, first compound 0.1 µM
[15] = second compound 0.316 µM, first compound 0.316 µM
[16] = second compound 0.316 µM, first compound 1 µM
[17] = second compound 0.316 µM, first compound 3.16 µM
[18] = second compound 0.316 µM, first compound 10 µM
[19] = second compound 1 µM, first compound 0.0316 µM
[20] = second compound 1 µM, first compound 0.1 µM
[21] = second compound 1 µM, first compound 0.316 µM
[22] = second compound 1 µM, first compound 1 µM
[23] = second compound 1 µM, first compound 3.16 µM
[24] = second compound 1 µM, first compound 10 µM
[25] = second compound 3.16 µM, first compound 0.0316 µM
[26] = second compound 3.16 µM, first compound 0.1 µM
[27] = second compound 3.16 µM, first compound 0.316 µM
[28] = second compound 3.16 µM, first compound 1 µM
[29] = second compound 3.16 µM, first compound 3.16 µM
[30] = second compound 3.16 µM, first compound 10 µM
[31] = second compound 10 µM, first compound 0.0316 µM
[32] = second compound 10 µM, first compound 0.1 µM
[33] = second compound 10 µM, first compound 0.316 µM
[34] = second compound 10 µM, first compound 1 µM
[35] = second compound 10 µM, first compound 3.16 µM
[36] = second compound 10 µM, first compound 10 µM
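Also: spheroids exposed to compounds for seven days before readout.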
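For viability, T/C in this document: 100% = DMSO vehicle control viability.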

Compound `O=C(c1cc(Cc2n[nH]c(=O)c3ccccc23)ccc1F)N1CCN(C(=O)C2CC2)CC1` + COC1C(OC(N)=O)C(O)C(Oc2ccc3c(O)c(NC(=O)c4ccc(O)c(CC=C(C)C)c4)c(=O)oc3c2C)OC1(C)C has an IC50 (second compound 0.0316 µM) greater than 10 µM, an IC50 (second compound 0.1 µM) greater than 10 µM and an IC50 (second compound 0.316 µM) greater than 10 µM. It also gave an IC50 (second compound 1 µM) greater than 10 µM, an IC50 (second compound 3.16 µM) greater than 10 µM and an IC50 (second compound 10 µM) greater than 10 µM. For the same compound, the viability, T/C [1] was 101%, the viability, T/C [2] was 106% and the viability, T/C [3] was 94.4%. It also gave a viability, T/C [4] of 100%, a viability, T/C [5] of 106% and a viability, T/C [6] of 97.4%. For the same compound, the viability, T/C [7] was 105%, the viability, T/C [8] was 102% and the viability, T/C [9] was 100%. It also gave a viability, T/C [10] of 96.4%, a viability, T/C [11] of 105% and a viability, T/C [12] of 98.1%. For the same compound, the viability, T/C [13] was 102%, the viability, T/C [14] was 104% and the viability, T/C [15] was 98.9%. It also gave a viability, T/C [16] of 92.9%, a viability, T/C [17] of 107% and a viability, T/C [18] of 97.8%. For the same compound, the viability, T/C [19] was 108%, the viability, T/C [20] was 102% and the viability, T/C [21] was 100%. The viability, T/C [22] was 106%, the viability, T/C [23] was 107% and the viability, T/C [24] was 100%. The viability, T/C [25] was 107%, the viability, T/C [26] was 109% and the viability, T/C [27] was 94.9%. The viability, T/C [28] was 97%, the viability, T/C [29] was 105% and the viability, T/C [30] was 92.1%. For the same compound, the viability, T/C [31] was 97.7%, the viability, T/C [32] was 99.3% and the viability, T/C [33] was 102%. It also gave a viability, T/C [34] of 102%, a viability, T/C [35] of 116% and a viability, T/C [36] of 91.4%.

In the case of `CCc1cc2c(N3CCc4c(cc(Cn5ccnc5)cc4-c4cn(C)nc4C(F)(F)F)C3=O)ccnc2c(OC)n1` + Cc1cccc(N(C)C(=O)C2C(O)CCN2c2nc(C)cc(C(F)(F)F)c2C#N)c1, the IC50 (second compound 0.0316 µM) is reported as greater than 10 µM, the IC50 (second compound 0.1 µM) is reported as greater than 10 µM and the IC50 (second compound 0.316 µM) is reported as greater than 10 µM. For the same compound, the IC50 (second compound 1 µM) was greater than 10 µM, the IC50 (second compound 3.16 µM) was greater than 10 µM and the IC50 (second compound 10 µM) was greater than 10 µM. It also gave a viability, T/C [1] of 98%, a viability, T/C [2] of 95.5% and a viability, T/C [3] of 101%. For the same compound, the viability, T/C [4] was 97.1%, the viability, T/C [5] was 93.1% and the viability, T/C [6] was 87%. The viability, T/C [7] was 126%, the viability, T/C [8] was 96.4% and the viability, T/C [9] was 90.6%. It also gave a viability, T/C [10] of 92.5%, a viability, T/C [11] of 95.2% and a viability, T/C [12] of 89.4%. The viability, T/C [13] was 105%, the viability, T/C [14] was 109% and the viability, T/C [15] was 102%. For the same compound, the viability, T/C [16] was 98%, the viability, T/C [17] was 98.8% and the viability, T/C [18] was 83.7%. The viability, T/C [19] was 101%, the viability, T/C [20] was 104% and the viability, T/C [21] was 85.1%. The viability, T/C [22] was 93.7%, the viability, T/C [23] was 93% and the viability, T/C [24] was 90.2%. The viability, T/C [25] was 115%, the viability, T/C [26] was 106% and the viability, T/C [27] was 83.3%. For the same compound, the viability, T/C [28] was 92.2%, the viability, T/C [29] was 103% and the viability, T/C [30] was 96.1%. It also gave a viability, T/C [31] of 94.9%, a viability, T/C [32] of 87% and a viability, T/C [33] of 99.5%. For the same compound, the viability, T/C [34] was 89.3%, the viability, T/C [35] was 91.7% and the viability, T/C [36] was 77.3%.

In the case of `CC1COCCN1c1cc(C2(O)CC3CCC(C2)O3)c2cnn(-c3ccn[nH]3)c2n1` (stereo not drawn) + Nc1ccc(C#CCN(C(=O)Cc2ncc(C(F)(F)F)cc2C(F)(F)F)c2ccc(F)cc2)nn1, the IC50 (second compound 0.0316 µM) is reported as greater than 10 µM, the IC50 (second compound 0.1 µM) is reported as greater than 10 µM and the IC50 (second compound 0.316 µM) is reported as greater than 10 µM. It also gave an IC50 (second compound 1 µM) greater than 10 µM, an IC50 (second compound 3.16 µM) greater than 10 µM and an IC50 (second compound 10 µM) greater than 10 µM. The viability, T/C [1] was 97.8%, the viability, T/C [2] was 88.4% and the viability, T/C [3] was 77%. The viability, T/C [4] was 62.4%, the viability, T/C [5] was 59.4% and the viability, T/C [6] was 51.4%. It also gave a viability, T/C [7] of 102%, a viability, T/C [8] of 85.8% and a viability, T/C [9] of 79.4%. It also gave a viability, T/C [10] of 60.3%, a viability, T/C [11] of 56.9% and a viability, T/C [12] of 54.4%. It also gave a viability, T/C [13] of 126%, a viability, T/C [14] of 73.7% and a viability, T/C [15] of 66.8%. It also gave a viability, T/C [16] of 60.1%, a viability, T/C [17] of 59.2% and a viability, T/C [18] of 50.2%. The viability, T/C [19] was 97.1%, the viability, T/C [20] was 100% and the viability, T/C [21] was 78.2%. It also gave a viability, T/C [22] of 66.7%, a viability, T/C [23] of 60.6% and a viability, T/C [24] of 55%. It also gave a viability, T/C [25] of 82.5%, a viability, T/C [26] of 80.5% and a viability, T/C [27] of 82.3%. The viability, T/C [28] was 60.6%, the viability, T/C [29] was 59.1% and the viability, T/C [30] was 58%. It also gave a viability, T/C [31] of 91.7%, a viability, T/C [32] of 80.7% and a viability, T/C [33] of 66.9%. The viability, T/C [34] was 53.1%, the viability, T/C [35] was 55.3% and the viability, T/C [36] was 48.6%.

Work on `CCc1c2c(nc3ccc(O)cc13)-c1cc3c(c(=O)n1C2)COC(=O)[C@]3(O)CC` + COC1C(OC(N)=O)C(O)C(Oc2ccc3c(O)c(NC(=O)c4ccc(O)c(CC=C(C)C)c4)c(=O)oc3c2C)OC1(C)C yielded an IC50 (second compound 0.0316 µM) of 0.487 µM, an IC50 (second compound 0.1 µM) of 0.401 µM and an IC50 (second compound 0.316 µM) of 0.458 µM. For the same compound, the IC50 (second compound 1 µM) was 0.377 µM, the IC50 (second compound 3.16 µM) was 0.332 µM and the IC50 (second compound 10 µM) was 0.287 µM. The viability, T/C (second compound 0.0316 µM, first compound 0.00316 µM) was 90.4%, the viability, T/C (second compound 0.0316 µM, first compound 0.01 µM) was 83.8% and the viability, T/C [1] was 69.8%. The viability, T/C [2] was 69.3%, the viability, T/C [3] was 58.9% and the viability, T/C [4] was 39%. The viability, T/C (second compound 0.1 µM, first compound 0.00316 µM) was 97.3%, the viability, T/C (second compound 0.1 µM, first compound 0.01 µM) was 84.3% and the viability, T/C [7] was 70.7%. For the same compound, the viability, T/C [8] was 66.7%, the viability, T/C [9] was 57.7% and the viability, T/C [10] was 36.6%. For the same compound, the viability, T/C (second compound 0.316 µM, first compound 0.00316 µM) was 98.5%, the viability, T/C (second compound 0.316 µM, first compound 0.01 µM) was 92.2% and the viability, T/C [13] was 73.1%. For the same compound, the viability, T/C [14] was 67.9%, the viability, T/C [15] was 58.6% and the viability, T/C [16] was 38.5%. For the same compound, the viability, T/C (second compound 1 µM, first compound 0.00316 µM) was 95.8%, the viability, T/C (second compound 1 µM, first compound 0.01 µM) was 83.7% and the viability, T/C [19] was 65.4%. It also gave a viability, T/C [20] of 63%, a viability, T/C [21] of 59.6% and a viability, T/C [22] of 36.8%. It also gave a viability, T/C (second compound 3.16 µM, first compound 0.00316 µM) of 90.5%, a viability, T/C (second compound 3.16 µM, first compound 0.01 µM) of 81.3% and a viability, T/C [25] of 71.8%. It also gave a viability, T/C [26] of 62%, a viability, T/C [27] of 52.7% and a viability, T/C [28] of 36.8%. It also gave a viability, T/C (second compound 10 µM, first compound 0.00316 µM) of 80.8%, a viability, T/C (second compound 10 µM, first compound 0.01 µM) of 82% and a viability, T/C [31] of 64.6%. The viability, T/C [32] was 61.5%, the viability, T/C [33] was 53.1% and the viability, T/C [34] was 28.3%.
